Measured values reported in US20230190717A1, “P38 GAMMA INHIBITORS AND METHOD OF USE THEREOF” (City of Hope, priority 2017, published 2023).

Experiments:
Format in all cases: cell-based, human
[1] = tested on: SK-MEL-5; assay: NCI-60 cytotoxicity, SK-MEL-5; conditions: SK-MEL-5 (Melanoma), 72 h
Experimental: (§1) Briefly, human NCI-60 cancer cell lines were counted with a Vi-CELL Cell Viability Analyzer (Beckman Coulter), resuspended in RPMI-1640 medium containing 10% FBS and 1% penicillin/streptomycin and dispensed in wells of 96-well microplates (3000 cells per well for solid tumor and 5000 per well for blood tumor cells) using an epMotion 5075 liquid handler (Eppendorf) under a sterile condition, followed by incubation overnight at 37° C. in 5% (v/v) CO2. Cells were exposed to compounds in a dose-dependent manner for 72 h. An MTS dye (20 uL per well) was added to each well. Cell viability was determined by tetrazolium conversion to its […] dye. […] Each experiment was performed in duplicate. […] H9 cells are more sensitive to drugs, therefore instead of 72 hours, we choose 48 hour the incubation time for H9 cells.
(§2) IC50 values were determined using […] software (Biosoft).

[2] = tested on: BT-S49; assay: NCI-60 cytotoxicity, BT-S49; conditions: BT-S49 (Breast), 72 h
Experimental: as §1, §2

[3] = tested on: LOX IMVI; assay: NCI-60 cytotoxicity, LOX IMVI; conditions: LOX IMVI (Melanoma), 72 h
Experimental: as §1, §2

[4] = tested on: MDA-MB-231; assay: NCI-60 cytotoxicity, MDA-MB-231; conditions: MDA-MB-231 (Breast), 72 h
Experimental: as §1, §2

[5] = tested on: A498; assay: NCI-60 cytotoxicity, A498; conditions: A498 (Renal), 72 h
Experimental: as §1, §2

[6] = tested on: EKVX; assay: NCI-60 cytotoxicity, EKVX; conditions: EKVX (Lung), 72 h
Experimental: as §1, §2

[7] = tested on: IGR-OV1; assay: NCI-60 cytotoxicity, IGR-OV1; conditions: IGR-OV1 (Ovarian), 72 h
Experimental: as §1, §2

[8] = tested on: OVCAR-4; assay: NCI-60 cytotoxicity, OVCAR-4; conditions: OVCAR-4 (Ovarian), 72 h
Experimental: as §1, §2

[9] = tested on: Colo 205; assay: NCI-60 cytotoxicity, Colo 205; conditions: Colo 205 (Colon), 72 h
Experimental: as §1, §2

[10] = tested on: SR; assay: NCI-60 cytotoxicity, SR; conditions: SR (Leukemia), 72 h
Experimental: as §1, §2

[11] = tested on: HL60; assay: NCI-60 cytotoxicity, HL60; conditions: HL60 (AML), 72 h
Experimental: as §1, §2

[12] = tested on: SKOV3; assay: NCI-60 cytotoxicity, SKOV3; conditions: SKOV3 (Ovarian), 72 h
Experimental: as §1, §2

[13] = tested on: HCC-2998; assay: NCI-60 cytotoxicity, HCC-2998; conditions: HCC-2998 (Colon), 72 h
Experimental: as §1, §2

[14] = tested on: NCI-H23; assay: NCI-60 cytotoxicity, NCI-H23; conditions: NCI-H23 (Lung), 72 h
Experimental: as §1, §2

[15] = tested on: SK-MEL-2; assay: NCI-60 cytotoxicity, SK-MEL-2; conditions: SK-MEL-2 (Melanoma), 72 h
Experimental: as §1, §2

[16] = tested on: RPMI-8226; assay: NCI-60 cytotoxicity, RPMI-8226; conditions: RPMI-8226 (MM), 72 h
Experimental: as §1, §2

[17] = tested on: TK-10; assay: NCI-60 cytotoxicity, TK-10; conditions: TK-10 (Renal), 72 h
Experimental: as §1, §2

[18] = tested on: RXF 393; assay: NCI-60 cytotoxicity, RXF 393; conditions: RXF 393 (Renal), 72 h
Experimental: as §1, §2

[19] = tested on: SNB-19; assay: NCI-60 cytotoxicity, SNB-19; conditions: SNB-19 (CNS), 72 h
Experimental: as §1, §2

[20] = tested on: SNB-75; assay: NCI-60 cytotoxicity, SNB-75; conditions: SNB-75 (CNS), 72 h
Experimental: as §1, §2

[21] = tested on: UO31; assay: NCI-60 cytotoxicity, UO31; conditions: UO31 (Renal), 72 h
Experimental: as §1, §2

[22] = tested on: NCI/ADR-RES; assay: NCI-60 cytotoxicity, NCI/ADR-RES; conditions: NCI/ADR-RES (Ovarian), 72 h
Experimental: as §1, §2

[23] = tested on: UACC-62; assay: NCI-60 cytotoxicity, UACC-62; conditions: UACC-62 (Melanoma), 72 h
Experimental: as §1, §2

[24] = tested on: SK-MEL-28; assay: NCI-60 cytotoxicity, SK-MEL-28; conditions: SK-MEL-28 (Melanoma), 72 h
Experimental: as §1, §2

[25] = tested on: PC-3; assay: NCI-60 cytotoxicity, PC-3; conditions: PC-3 (Prostate), 72 h
Experimental: as §1, §2

[26] = tested on: SF-295; assay: NCI-60 cytotoxicity, SF-295; conditions: SF-295 (CNS), 72 h
Experimental: as §1, §2

[27] = tested on: MDA-MB-435; assay: NCI-60 cytotoxicity, MDA-MB-435; conditions: MDA-MB-435 (Melanoma), 72 h
Experimental: as §1, §2

[28] = tested on: UACC257; assay: NCI-60 cytotoxicity, UACC257; conditions: UACC257 (Melanoma), 72 h
Experimental: as §1, §2

[29] = tested on: CAKI-1; assay: NCI-60 cytotoxicity, CAKI-1; conditions: CAKI-1 (Renal), 72 h
Experimental: as §1, §2

[30] = tested on: NCI-H552; assay: NCI-60 cytotoxicity, NCI-H552; conditions: NCI-H552 (Lung), 72 h
Experimental: as §1, §2

[31] = tested on: NCI-H322M; assay: NCI-60 cytotoxicity, NCI-H322M; conditions: NCI-H322M (Lung), 72 h
Experimental: as §1, §2

[32] = tested on: SW-620; assay: NCI-60 cytotoxicity, SW-620; conditions: SW-620 (Colon), 72 h
Experimental: as §1, §2

[33] = tested on: MALME-3M; assay: NCI-60 cytotoxicity, MALME-3M; conditions: MALME-3M (Melanoma), 72 h
Experimental: as §1, §2

`O=C1NC(=NCc2cccs2)S/C1=C\c1ccc2ncccc2c1` [Compound A10] showed an IC50 [1] of over 10 µM, an IC50 [2] of 4.78 µM and an IC50 [3] of 4.4 µM. It also gave an IC50 [4] of over 10 µM, an IC50 [5] of over 10 µM and an IC50 [6] of over 10 µM. For the same compound, the IC50 [7] was over 10 µM, the IC50 [8] was over 10 µM and the IC50 [9] was over 10 µM. For the same compound, the IC50 [10] was 0.372 µM, the IC50 [11] was 1.14 µM and the IC50 [12] was over 10 µM. For the same compound, the IC50 [13] was over 10 µM, the IC50 [14] was over 10 µM and the IC50 [15] was over 10 µM. It also gave an IC50 [16] of 9 µM, an IC50 [17] of over 10 µM and an IC50 [18] of over 10 µM. For the same compound, the IC50 [19] was over 10 µM, the IC50 [20] was over 10 µM and the IC50 [21] was over 10 µM. The IC50 [22] was 3.67 µM, the IC50 [23] was over 10 µM and the IC50 [24] was over 10 µM. The IC50 [25] was over 10 µM, the IC50 [26] was over 10 µM and the IC50 [27] was 6.6 µM. For the same compound, the IC50 [28] was over 10 µM, the IC50 [29] was over 10 µM and the IC50 [30] was over 10 µM. It also gave an IC50 [31] of over 10 µM, an IC50 [32] of over 10 µM and an IC50 [33] of over 10 µM.
For `Cc1ccc([N+](=O)[O-])cc1S(=O)(=O)N(C)/N=C/c1cnc2ccc(Br)cn12` [Compound 1], the IC50 ([1]; Homo sapiens) was over 10 µM, the IC50 ([2]; Homo sapiens) was under 0.001 µM and the IC50 ([3]; Homo sapiens) was 0.073 µM. For the same compound, the IC50 ([4]; Homo sapiens) was 0.466 µM, the IC50 ([5]; Homo sapiens) was 0.027 µM and the IC50 ([6]; Homo sapiens) was 1.22 µM. It also gave an IC50 ([7]; Homo sapiens, IGROV-1) of 0.251 µM, an IC50 ([8]; Homo sapiens) of 0.403 µM and an IC50 ([9]; Homo sapiens) of 2.18 µM. It also gave an IC50 ([10]; Homo sapiens) of under 0.001 µM, an IC50 ([11]; Homo sapiens, HL-60) of 0.005 µM and an IC50 ([12]; Homo sapiens, SK-OV-3) of 0.291 µM. It also gave an IC50 ([13]; Homo sapiens) of over 10 µM, an IC50 ([14]; Homo sapiens) of over 10 µM and an IC50 ([15]; Homo sapiens) of 0.317 µM. The IC50 ([16]; Homo sapiens) was 0.077 µM, the IC50 ([17]; Homo sapiens) was 0.805 µM and the IC50 ([18]; Homo sapiens) was 0.08 µM. The IC50 ([19]; Homo sapiens) was 0.385 µM, the IC50 ([20]; Homo sapiens) was 0.435 µM and the IC50 ([21]; Homo sapiens, UO-31) was 0.115 µM. It also gave an IC50 ([22]; Homo sapiens) of 0.024 µM, an IC50 ([23]; Homo sapiens) of 0.362 µM and an IC50 ([24]; Homo sapiens) of 1.69 µM. It also gave an IC50 ([25]; Homo sapiens) of 0.02 µM, an IC50 ([26]; Homo sapiens) of 0.141 µM and an IC50 ([27]; Homo sapiens) of over 10 µM. For the same compound, the IC50 ([28]; Homo sapiens, UACC-257) was 2.32 µM, the IC50 ([29]; Homo sapiens) was 0.35 µM and the IC50 ([30]; Homo sapiens) was over 10 µM. It also gave an IC50 ([31]; Homo sapiens) of 1.5 µM, an IC50 ([32]; Homo sapiens) of 0.074 µM and an IC50 ([33]; Homo sapiens) of 0.116 µM.
`O=C1NCCc2[nH]c(-c3ccncc3)cc21` [Compound A11] was tested, and the IC50 [1] was over 10 µM, the IC50 [2] was 0.705 µM and the IC50 [3] was 3.58 µM. For the same compound, the IC50 [4] was over 10 µM, the IC50 [5] was over 10 µM and the IC50 [6] was over 10 µM. For the same compound, the IC50 [7] was over 10 µM, the IC50 [8] was over 10 µM and the IC50 [9] was over 10 µM. For the same compound, the IC50 [10] was 0.286 µM, the IC50 [11] was 0.247 µM and the IC50 [12] was over 10 µM. It also gave an IC50 [13] of over 10 µM, an IC50 [14] of over 10 µM and an IC50 [15] of over 10 µM. The IC50 [16] was over 10 µM, the IC50 [17] was over 10 µM and the IC50 [18] was 3.47 µM. The IC50 [19] was over 10 µM, the IC50 [20] was 6.14 µM and the IC50 [21] was 4.03 µM. For the same compound, the IC50 [22] was 1.44 µM, the IC50 [23] was 6.12 µM and the IC50 [24] was 9.6 µM. For the same compound, the IC50 [25] was 9.18 µM, the IC50 [26] was 7.64 µM and the IC50 [27] was over 10 µM. For the same compound, the IC50 [28] was over 10 µM, the IC50 [29] was over 10 µM and the IC50 [30] was over 10 µM. The IC50 [31] was over 10 µM, the IC50 [32] was 3.93 µM and the IC50 [33] was 3.05 µM.
